# Data: ChEMBL document CHEMBL5321213, “Nicolaioidesin C: An Antiausterity Agent Shows Promising Antitumor Activity in a Pancreatic Cancer Xenograft Mouse Model” (J Nat Prod, 2023)
# Activity calls are given as the source filed them. The rule behind the calls is not given here.
# Assays:
# [1] = test system: MIA PaCa-2; assay: Antitumor activity against human MIA PaCa-2 cells xenografted in athymic BALB/c-nu mouse assessed as fold change in N-acetyl-L-glutamicacid level in tumor at 10 mg/kg/day, ip administered five times per week for 4 weeks by LC-MS analysis; type: functional
# [2] = test system: MIA PaCa-2; assay: Antitumor activity against human MIA PaCa-2 cells xenografted in athymic BALB/c-nu mouse assessed as fold change in cytidine level in tumor at 2 mg/kg/day, ip administered five times per week for 4 weeks by LC-MS analysis; type: functional
# [3] = test system: MIA PaCa-2; assay: Antitumor activity against human MIA PaCa-2 cells xenografted in athymic BALB/c-nu mouse assessed as fold change in alanine level in tumor at 2 mg/kg/day, ip administered five times per week for 4 weeks by LC-MS analysis; type: functional
# [4] = test system: MIA PaCa-2; assay: Antitumor activity against human MIA PaCa-2 cells xenografted in athymic BALB/c-nu mouse assessed as fold change in N-acetylneuraminic acid level in tumor at 2 mg/kg/day, ip administered five times per week for 4 weeks by LC-MS analysis; type: functional
# [5] = test system: MIA PaCa-2; assay: Antitumor activity against human MIA PaCa-2 cells xenografted in athymic BALB/c-nu mouse assessed as reduction in Akt phosphorylation at S473 residue in tumor at 10 mg/kg/day, ip administered five times per week for 4 weeks by Western blot analysis; type: functional, organism-based
# [6] = test system: PANC-1; assay: Preferential cytotoxicity against human PANC-1 cells in nutrient-deprived medium assessed as alteration in cell morphology by measuring leakage of cell components at 5 uM measured after 24 hrs by acridine orange and ethidium bromide dual fluorescent staining based imaging analysis; type: functional
# [7] = test system: MIA PaCa-2; assay: Antitumor activity against human MIA PaCa-2 cells xenografted in athymic BALB/c-nu mouse assessed as reduction in p-mTOR level in tumor at 2 to 10 mg/kg/day, ip administered five times per week for 4 weeks by immunohistochemistry analysis; type: functional, organism-based; settings: dose 2-10 mg/kg/day
# [8] = test system: PANC-1; assay: Inhibition of Akt/mTOR signaling pathway in human PANC-1 cells in DMEM media assessed as reduction in AKT phosphorylation at S473 residue at 5 to 20 uM measured after 6 hrs by Western blot analysis; type: cell-based; settings: dose 5-20 µM
# [9] = test system: MIA PaCa-2; assay: Inhibition of Akt/mTOR signaling pathway in human MIA PaCa-2 cells in nutrient-deprived medium assessed as reduction in AKT phosphorylation at S473 residue measured after 6 hrs by Western blot analysis; type: cell-based; settings: dose 5-20 µM
# [10] = test system: MIA PaCa-2; assay: Antitumor activity against human MIA PaCa-2 cells xenografted in athymic BALB/c-nu mouse assessed as fold change in 2'-deoxycytidine level in tumor at 2 mg/kg/day, ip administered five times per week for 4 weeks by LC-MS analysis; type: functional
# [11] = test system: MIA PaCa-2; assay: Antitumor activity against human MIA PaCa-2 cells xenografted in athymic BALB/c-nu mouse assessed as fold change in tetramethyl urea level in tumor at 10 mg/kg/day, ip administered five times per week for 4 weeks by LC-MS analysis; type: functional
# [12] = test system: MIA PaCa-2; assay: Inhibition of autophagy in human MIA PaCa-2 cells in nutrient-deprived medium assessed as downregulation of LC3-I protein expression measured after 6 hrs by Western blot analysis; type: functional, cell-based; settings: dose 5-20 µM
# [13] = test system: MIA PaCa-2; assay: Antitumor activity against human MIA PaCa-2 cells xenografted in athymic BALB/c-nu mouse assessed as fold change in D-glucosamine 6-phosphate level in tumor at 2 mg/kg/day, ip administered five times per week for 4 weeks by LC-MS analysis; type: functional
# [14] = test system: MIA PaCa-2; assay: Antitumor activity against human MIA PaCa-2 cells xenografted in athymic BALB/c-nu mouse assessed as fold change in arabinosyl hypoxanthine level in tumor at 10 mg/kg/day, ip administered five times per week for 4 weeks by LC-MS analysis; type: functional
# [15] = test system: MIA PaCa-2; assay: Antitumor activity against human MIA PaCa-2 cells xenografted in athymic BALB/c-nu mouse assessed as fold change in proline level in tumor at 2 mg/kg/day, ip administered five times per week for 4 weeks by LC-MS analysis; type: functional
# [16] = test system: PANC-1; assay: Inhibition of Akt/mTOR signaling pathway in human PANC-1 cells in DMEM media assessed as reduction in mTOR phosphorylation at S2481 residue at 5 to 20 uM measured after 6 hrs by Western blot analysis; type: cell-based; settings: dose 5-20 µM
# [17] = test system: PANC-1; assay: Inhibition of autophagy in human PANC-1 cells in nutrient-deprived medium assessed as downregulation of LC3-I protein expression measured after 6 hrs by Western blot analysis; type: functional, cell-based; settings: dose 5-20 µM
# [18] = test system: MIA PaCa-2; assay: Antitumor activity against human MIA PaCa-2 cells xenografted in athymic BALB/c-nu mouse assessed as reduction in p-Akt level in tumor at 2 to 10 mg/kg/day, ip administered five times per week for 4 weeks by immunohistochemistry analysis; type: functional, organism-based; settings: dose 2-10 mg/kg/day
# [19] = test system: MIA PaCa-2; assay: Antitumor activity against human MIA PaCa-2 cells xenografted in athymic BALB/c-nu mouse assessed as fold change in cytosine level in tumor at 2 mg/kg/day, ip administered five times per week for 4 weeks by LC-MS analysis; type: functional
# [20] = test system: MIA PaCa-2; assay: Antitumor activity against human MIA PaCa-2 cells xenografted in athymic BALB/c-nu mouse assessed as fold change in D-glucosamine 6-phosphate level in tumor at 10 mg/kg/day, ip administered five times per week for 4 weeks by LC-MS analysis; type: functional
# [21] = test system: PANC-1; assay: Inhibition of Akt/mTOR signaling pathway in human PANC-1 cells in nutrient-deprived medium assessed as reduction in mTOR phosphorylation at S2481 residue measured after 6 hrs by Western blot analysis; type: cell-based; settings: dose 5-20 µM
# [22] = test system: PANC-1; assay: Antimetastatic activity in human PANC-1 cells in nutrient-rich medium assessed as open wound area at 20 uM measured every 15 mins for 48 hrs by live cell imaging analysis relative to control; type: functional
# [23] = test system: MIA PaCa-2; assay: Antitumor activity against human MIA PaCa-2 cells xenografted in athymic BALB/c-nu mouse assessed as fold change in tyrosine level in tumor at 2 mg/kg/day, ip administered five times per week for 4 weeks by LC-MS analysis; type: functional
# [24] = test system: PANC-1; assay: Antimetastatic activity in human PANC-1 cells in DMEM media assessed as inhibition of colony formation at 40 uM incubated for 24 hrs followed by replacement with fresh medium and measured after 10 days by crystal violet staining-based assay relative to control; type: functional
# [25] = test system: MIA PaCa-2; assay: Antitumor activity against human MIA PaCa-2 cells xenografted in athymic BALB/c-nu mouse assessed as fold change in cytidine level in tumor at 10 mg/kg/day, ip administered five times per week for 4 weeks by LC-MS analysis; type: functional
# [26] = test system: MIA PaCa-2; assay: Antitumor activity against human MIA PaCa-2 cells xenografted in athymic BALB/c-nu mouse assessed as fold change in desthiobiotin level in tumor at 10 mg/kg/day, ip administered five times per week for 4 weeks by LC-MS analysis; type: functional
# [27] = test system: MIA PaCa-2; assay: Antitumor activity against human MIA PaCa-2 cells xenografted in athymic BALB/c-nu mouse assessed as fold change in 4-(methylthio)-2-oxobutyric acid level in tumor at 2 mg/kg/day, ip administered five times per week for 4 weeks by LC-MS analysis; type: functional
# [28] = test system: MIA PaCa-2; assay: Antitumor activity against human MIA PaCa-2 cells xenografted in athymic BALB/c-nu mouse assessed as fold change in proline level in tumor at 10 mg/kg/day, ip administered five times per week for 4 weeks by LC-MS analysis; type: functional
structure (smiles),measurement,setting,value
COc1cc(O)c(C(=O)[C@@H]2CC=C(CCC=C(C)C)C[C@H]2c2ccccc2)c(O)c1,fold change (FC),[1],0.28
same,fold change (FC),[2],0.62
same,fold change (FC),[3],0.49
same,fold change (FC),[4],0.33
same,Activity,[5],Active
same,Activity,[6],Active
same,Activity,[7],Active
same,inhibition,[8],inactive
same,inhibition,[9],Dose-Dependent Effect
same,fold change (FC),[10],0.63
same,fold change (FC),[11],0.51
same,inhibition,[12],Dose-Dependent Effect
same,fold change (FC),[13],0.4
same,fold change (FC),[14],0.21
same,fold change (FC),[15],0.62
same,inhibition,[16],inactive
same,inhibition,[17],Dose-Dependent Effect
same,Activity,[18],Active
same,fold change (FC),[19],0.73
same,fold change (FC),[20],0.36
same,inhibition,[21],Dose-Dependent Effect
same,Activity,[22],24%
same,fold change (FC),[23],0.41
same,inhibition at 40 µM,[24],92%
same,fold change (FC),[25],0.35
same,fold change (FC),[26],0.4
same,fold change (FC),[27],0.48
same,fold change (FC),[28],0.53
